Read-outs that look alike come from different tables or passages of the source.
Assay: HFrEF study Part 1 (SAD Cohorts 1 and 2): plasma pharmacokinetics
Assay type: in vivo, human
Details: for Cmax / Tmax / AUC(0-t) / AUC(0-inf) / half-life: human, plasma, oral; for AUC(0-t): read-out: AUC0-24; for Plasma concentration, Mean / Plasma concentration, Median: pooled SAD Cohorts 1 and 2
Excerpt: Part 1 was a randomized, crossover, DB, placebo-controlled, two-cohort, sequential ascending (oral) single-close study in ambulatory patients with heart failure. All patients received placebo and 2 or 3 active doses of Compound I. Each patient underwent sequential, single-close treatment events separated by no fewer than 5 days and no more than 14 days. Patients in Cohort 1 may also return for a fourth dosing period (open label) after the SRC reviews available data and recommends the close. Patients enrolled prior to the implementation of Amendment 1 may be offered the opportunity to return for the open-label period. Patients in Cohort 2 participated in 2 to 4 dosing periods, based on SRC decision. Patients were randomized to one of the different dosing sequences outlined in FIG. 5A. Multiple patients could be closed at the same time or during the same week depending on administrative issues, i.e., capacity and scheduling.
For each dosing period, patients were admitted to the clinical site on Day −1. Patients were assessed for absence of exclusion criteria (e.g., new lab abnormalities and/or conditions that indicate the patient is clinically unstable). They received Compound I or placebo in the morning of Day 1 followed by serial PK and PD assessments, as well as serial safety assessments. Patients were discharged on Day 3 (i.e., ˜48 hours following Day 1 dosing). An additional outpatient plasma PK sample was taken on the morning of Day 4 at 72 hours postclose.
Study medication consisted of Compound I 5 mg tablets, 25 mg tablets, 100 mg tablets, or matching placebo tablets. In Part 1 (SAD), Compound I or placebo was administered after an overnight fast (at least 6 hours), while in Part 2 (MAD), Compound I was administered after a 2 hour fast (Cohort A) or with food (Cohorts B, C, and D). The close was ingested with a minimum of 240 mL of water, but more water was ingested as needed. The entire close was administered over a period of up to 15 minutes. The time of close used to determine future assessments was the time the last tablet was taken. In the cohorts for Part 2 (MAD), a BID regimen was used.
In Part 1 (SAD), patients fasted overnight (approximately 6 hours) through 4 hours postclose. With the exception of the water consumed with the close, water could be ingested until approximately 1 hour prior to dosing and approximately 1 hour after dosing. If closes were split, subjects fasted 6 hours prior to the first half-close. A light, low-fat snack could be consumed 2 hours after the first half-close and a fast continued through 2 hours after the second half-close.
Eight patients with stable heart failure were enrolled and randomized to receive Compound I or placebo at a dose of 175, 350, 525, 450 (split close), or 550 mg (split close) in a crossover study design with four periods (A-D). All patients had heart failure with a nonischemic etiology and a mean Baseline ejection fraction of 43%. All eight subjects received placebo, 175 mg, and 350 mg (in random sequence) during Periods A to C. Six subjects elected to continue into a fourth open-label Period D, and closes received included: 350 mg (n=1), 525 mg (n=2), 450 mg (divided into 2 aliquots; n=1) and 550 mg (divided into 2 aliquots, n=2). The single doses were administered to patients under fasted conditions. The split closes were given four hours apart with patients fasting six hours prior to the first half-close and 2 hours after the second half-close, with a light snack allowed 2 hours after the first half-close. Subsequently, patients underwent extended observation, followed by a washout period. This process was repeated until each patient had received at least three closes (Compound I or placebo).
Four subjects with stable heart failure were enrolled and randomized to receive Compound I or placebo at a dose of 400 mg (split close) or 500 mg (split close) over three periods (A-C). […]

[1] = 175 mg, SAD Cohort 1, 175 mg (n = 8)
[2] = 350 mg, SAD Cohort 1, 350 mg (n = 8)
[3] = 350 mg, SAD Cohort 1, 4th dose 350 mg (n = 1)
[4] = 400 mg, SAD Cohort 2, 400 mg split dose (n = 4)
[5] = 450 mg, SAD Cohort 1, Split dose 450 mg (n = 1)
[6] = 500 mg, SAD Cohort 2, 500 mg split dose (n = 4)
[7] = 525 mg, SAD Cohort 1, 525 mg (n = 2)
[8] = 550 mg, SAD Cohort 1, Split dose 550 mg (n = 2)

Cn1cc(S(=O)(=O)[C@@](C)(F)C2CCN(C(=O)Nc3ccon3)CC2)c(C(F)F)n1 [Compound I, (R)-4-(1-((3-(difluoromethyl)-1-methyl-1H-pyrazol-4-yl)sulfonyl)-1-fluoroethyl)-N-(isoxazol-3-yl)piperidine-1-carboxamide]
AUC0-∞ (SAD Cohort 1, 175 mg (n = 8)): 53,800 h × ng/mL
AUC0-∞ (SAD Cohort 1, 350 mg (n = 8)): 103,000 h × ng/mL
AUC0-∞ (SAD Cohort 1, 525 mg (n = 2)): 127,000 h × ng/mL
Cmax (175 mg, 175 mg single dose, read-out: Cmax, mean (SD)): 1510 ng/mL
Tmax [1]: 4.93 h
AUC(0-t) [1]: 27 µg·h/mL
Cmax (175 mg, SAD Cohort 1, 175 mg (n = 8), read-out: Cmax): 1510 ng/mL
Cmax (350 mg, 350 mg single dose, read-out: Cmax, mean (SD)): 2760 ng/mL
Tmax [2]: 6.15 h
AUC(0-t) [2]: 50.5 µg·h/mL
Cmax (350 mg, SAD Cohort 1, 350 mg (n = 8), read-out: Cmax): 2760 ng/mL
Tmax [3]: 4.05 h
AUC(0-t) [3]: 70.1 µg·h/mL
Cmax (350 mg, SAD Cohort 1, 4th dose 350 mg (n = 1), read-out: Cmax): 3590 ng/mL
Tmax [4]: 9 h
AUC(0-t) [4]: 162 µg·h/mL
Cmax (400 mg, SAD Cohort 2, 400 mg split dose (n = 4), read-out: Cmax): 5460 ng/mL
Tmax [5]: 12 h
AUC(0-t) [5]: 79.2 µg·h/mL
Cmax (450 mg, SAD Cohort 1, Split dose 450 mg (n = 1), read-out: Cmax): 4420 ng/mL
Tmax [6]: 8.5 h
AUC(0-t) [6]: 191 µg·h/mL
Cmax (500 mg, SAD Cohort 2, 500 mg split dose (n = 4), read-out: Cmax): 5880 ng/mL
Cmax (525 mg, 525 mg single dose, read-out: Cmax, mean (SD)): 2720 ng/mL
Tmax [7]: 5.74 h
AUC(0-t) [7]: 54 µg·h/mL
Cmax (525 mg, SAD Cohort 1, 525 mg (n = 2), read-out: Cmax): 2720 ng/mL
Tmax [8]: 8.93 h
AUC(0-t) [8]: 97.9 µg·h/mL
Cmax (550 mg, SAD Cohort 1, Split dose 550 mg (n = 2), read-out: Cmax): 5280 ng/mL
AUC(0-inf) (175 mg single dose, read-out: AUC0-∞, mean (SD)): 53.8 µg·h/mL
AUC(0-inf) (350 mg single dose, read-out: AUC0-∞, mean (SD)): 103 µg·h/mL
AUC(0-inf) (525 mg single dose, read-out: AUC0-∞, mean (SD)): 127 µg·h/mL
half-life (HFrEF patients (Cohort 1), read-out: half-life): 20 to 25 h
half-life (SAD Cohort 1, 175 mg (n = 8), read-out: t½ (converted)): 22 h
half-life (SAD Cohort 1, 350 mg (n = 8), read-out: t½ (converted)): 21 h
half-life (SAD Cohort 1, 525 mg (n = 2), read-out: t½ (converted)): 24.7 h
AUC(0-inf) (SAD Cohort 1, Split dose 450 mg (n = 1), read-out: AUC0-∞): 235 µg·h/mL
half-life (SAD Cohort 1, Split dose 450 mg (n = 1), read-out: t½ (converted)): 30.6 h
AUC(0-inf) (SAD Cohort 1, Split dose 550 mg (n = 2), read-out: AUC0-∞): 213 µg·h/mL
half-life (SAD Cohort 1, Split dose 550 mg (n = 2), read-out: t½ (converted)): 21.5 h
AUC(0-inf) (SAD Cohort 2, 400 mg split dose (n = 4), read-out: AUC0-∞): 192 µg·h/mL
half-life (SAD Cohort 2, 400 mg split dose (n = 4), read-out: t½ (converted)): 24.1 h
AUC(0-inf) (SAD Cohort 2, 500 mg split dose (n = 4), read-out: AUC0-∞): 231 µg·h/mL
half-life (SAD Cohort 2, 500 mg split dose (n = 4), read-out: t½ (converted)): 24 h
Plasma concentration, Mean (group <2000 ng/mL): 1390 ng/mL
Plasma concentration, Median (group <2000 ng/mL): 1307 ng/mL
Plasma concentration, Mean (group ≥2000 ng/mL): 3823 ng/mL
Plasma concentration, Median (group ≥2000 ng/mL): 3795 ng/mL

Reference: patent publication US20220265629A1, “TREATMENT OF SYSTOLIC DYSFUNCTION AND HEART FAILURE WITH REDUCED EJECTION FRACTION WITH THE COMPOUND (R)-4-(1-((3-(DIFLUOROMETHYL)-1-METHYL-1H-PYRAZOL-4-YL)SULFONYL)-1-FLUOROETHYL)-N-(ISOXAZOL-3-YL)PIPERIDINE-1-CARBOXAMIDE” (MyoKardia, Inc., priority 2019, published 2022)
